Structures are written as SMILES. pIC50: −log10 of the molar value. Where a SMILES comes first, the peptide text is derived from it. Bridges are numbered along the chain shown (N, C = ends). [ ]: non-standard residue; d: D form. 2Nal = N[C@@H](Cc1ccc2ccccc2c1)C(=O)O; NMeR = CN[C@@H](CCCNC(=N)N)C(=O)O; tBuAla = CC(C)(C)C[C@H](N)C(=O)O; NMeQ = CN[C@@H](CCC(N)=O)C(=O)O; Cha = N[C@@H](CC1CCCCC1)C(=O)O; NMeD = CN[C@@H](CC(=O)O)C(=O)O; Cba = N[C@@H](CC1CCC1)C(=O)O; Tle = CC(C)(C)[C@H](N)C(=O)O; S5 = C=CCCC[C@](C)(N)C(=O)O

What is called pIC50 is the IC50 on a negative log10 scale, so that one unit is a factor of ten. A higher pIC50 goes with a low IC50.

The subject of the assay is Colo320DM. As to the kind of experiment: Colo320DM cell viability. It is filed as cell-based, human. From the text:
In some embodiments, a polypeptide described herein inhibits binding of BLC9 to β-catenin when assessed in a cell-viability assay. In some embodiments, the cell-viability assay is a CellTiterGlo luminescent assay, wherein the viability of cells is quantitatively measured. Various cell lines, transformed cell lines or primary cells derived from a healthy subject or subject suffering from a disease can be used in this assay.
`CC[C@H](C)[C@@H]1NC(=O)[C@@](C)(NC(=O)[C@H](CCCNC(=N)N)NC(=O)[C@H](CC(C)C)NC(=O)[C@@H](NC(=O)[C@H](CCC(N)=O)NC(=O)[C@H](CC(C)C)NC(=O)[C@H](CO)NC(=O)[C@H](CCCNC(=N)N)NC(=O)[C@H](CCC(N)=O)NC(=O)[C@H](CCCNC(=N)N)NC(=O)[C@H](Cc2c[nH]cn2)NC(C)=O)[C@@H](C)O)CCCC=CCCC[C@@](C)(C(=O)N[C@@H](CC2CCCCC2)C(=O)N[C@@H](Cc2ccc3ccccc3c2)C(N)=O)NC(=O)[C@H](CCCNC(=N)N)N(C)C(=O)[C@H](CCC(N)=O)NC1=O` [SEQ ID NO: 190, HRQRSLQTLRXIQ(N-MeArg)X(Cha)(2-Nal)] (Ac-HRQRSLQTLR[S5]IQ[NMeR][S5][Cha][2Nal]-NH2; staple 11-15) showed a pIC50 of 5.23.

`CC[C@H](C)[C@@H]1NC(=O)[C@@](C)(NC(=O)[C@H](CCCNC(=N)N)NC(=O)[C@H](CC(C)C)NC(=O)[C@@H](NC(=O)[C@H](CCC(N)=O)NC(=O)[C@H](CC(C)C)NC(=O)[C@@H](NC(=O)[C@H](CCCNC(=N)N)NC(=O)[C@H](CCC(N)=O)NC(=O)[C@H](CCCNC(=N)N)NC(=O)[C@H](Cc2c[nH]cn2)NC(C)=O)[C@@H](C)O)[C@@H](C)O)CCCC=CCCC[C@@](C)(C(=O)N[C@@H](CC2CCC2)C(=O)N[C@@H](Cc2ccc3ccccc3c2)C(N)=O)NC(=O)[C@H](CCCNC(=N)N)NC(=O)[C@H](CCC(N)=O)NC1=O` [SEQ ID NO: 159, HRQRTLQTLRXIQRX(CBA)(2-Nal)] (Ac-HRQRTLQTLR[S5]IQR[S5][Cba][2Nal]-NH2; staple 11-15) gave a pIC50 of 5.61.

In turn, `CC[C@H](C)[C@@H]1NC(=O)[C@@](C)(NC(=O)[C@H](CCCNC(=N)N)NC(=O)[C@H](CC(C)C)NC(=O)[C@@H](NC(=O)[C@H](CCC(N)=O)NC(=O)[C@H](CC(C)C)NC(=O)[C@H](CO)NC(=O)[C@H](CCCNC(=N)N)NC(=O)[C@H](CCC(=O)O)NC(=O)[C@H](CCCNC(=N)N)NC(=O)[C@H](Cc2c[nH]cn2)NC(=O)[C@H](CCC(=O)O)NC(=O)[C@H](CC(C)C)NC(=O)[C@H](CCC(N)=O)NC(C)=O)[C@@H](C)O)CCCC=CCCC[C@@](C)(C(=O)N[C@@H](CC(C)C)C(=O)N[C@@H](Cc2ccc3ccccc3c2)C(N)=O)NC(=O)[C@H](CCCNC(=N)N)NC(=O)[C@H](CCC(N)=O)NC1=O` [SEQ ID NO: 8, QLEHRERSLQTLRXIQRXL(2-Nal)] (Ac-QLEHRERSLQTLR[S5]IQR[S5]L[2Nal]-NH2; staple 14-18) had a pIC50 of 5.20.

`CC[C@H](C)[C@@H]1NC(=O)[C@@](C)(NC(=O)[C@H](CCCNC(=N)N)NC(=O)[C@H](CC(C)C)NC(=O)[C@]2(C)CCCC=CCCC[C@](C)(NC(=O)[C@H](CCC(=O)O)NC(=O)[C@H](CCCNC(=N)N)NC(=O)[C@@H](N)Cc3c[nH]cn3)C(=O)N[C@@H](CO)C(=O)N[C@@H](CC(C)C)C(=O)N[C@@H](CCC(N)=O)C(=O)N2)CCCC=CCCC[C@@](C)(C(=O)N[C@@H](CC2CCC2)C(=O)N[C@@H](Cc2ccc3ccccc3c2)C(=O)O)NC(=O)[C@H](CCCNC(=N)N)NC(=O)[C@H](CCC(N)=O)NC1=O` [SEQ ID NO: 82, HREXSLQXLRZIQRZ(CBA)(2-Nal)] (H-HRE[S5]SLQ[S5]LR[S5]IQR[S5][Cba][2Nal]-OH; staple 4-8, 11-15): the pIC50 is less than 5.30.

Consider `CC[C@H](C)[C@@H]1NC(=O)[C@@](C)(NC(=O)[C@H](CCCNC(=N)N)NC(=O)[C@H](CC(C)C)NC(=O)[C@@H](NC(=O)[C@H](CCC(N)=O)NC(=O)[C@H](CC(C)C)NC(=O)[C@H](CO)NC(=O)[C@H](CCCNC(=N)N)NC(=O)[C@H](CCC(N)=O)N(C)C(=O)[C@H](CCCNC(=N)N)NC(=O)[C@H](Cc2c[nH]cn2)NC(C)=O)[C@@H](C)O)CCCC=CCCC[C@@](C)(C(=O)N[C@@H](CC(C)(C)C)C(=O)N[C@@H](Cc2ccc3ccccc3c2)C(N)=O)NC(=O)[C@H](CCCNC(=N)N)NC(=O)[C@H](CCC(N)=O)NC1=O` [SEQ ID NO: 193, HR(N-MeGln)RSLQTLRXIQRX(β-tBu-Ala)(2-Nal)] (Ac-HR[NMeQ]RSLQTLR[S5]IQR[S5][tBuAla][2Nal]-NH2; staple 11-15), for which the negative-log IC50 (pIC50) is 5.57.

`CC[C@H](C)[C@@H]1NC(=O)[C@@](C)(NC(=O)[C@H](CCCNC(=N)N)NC(=O)[C@H](CC(C)C)NC(=O)[C@@H](NC(=O)[C@H](CCC(N)=O)N(C)C(=O)[C@H](CC(C)C)NC(=O)[C@H](CO)NC(=O)[C@H](CCCNC(=N)N)NC(=O)[C@H](CCC(N)=O)N(C)C(=O)[C@H](CCCNC(=N)N)NC(=O)[C@H](Cc2c[nH]cn2)NC(C)=O)[C@@H](C)O)CCCC=CCCC[C@@](C)(C(=O)N[C@@H](CC2CCC2)C(=O)N[C@@H](Cc2ccc3ccccc3c2)C(N)=O)NC(=O)[C@H](CCCNC(=N)N)NC(=O)[C@H](CCC(N)=O)NC1=O` [SEQ ID NO: 155, HR(N-methylQ)RSL(N-methylQ)TLRXIQRX(CBA)(2-Nal)] (Ac-HR[NMeQ]RSL[NMeQ]TLR[S5]IQR[S5][Cba][2Nal]-NH2; staple 11-15): the pIC50 was 5.67.

On to `CC[C@H](C)[C@@H]1NC(=O)[C@@](C)(NC(=O)[C@H](CCCNC(=N)N)NC(=O)[C@H](CC(C)C)NC(=O)[C@@H](NC(=O)[C@H](CCC(N)=O)NC(=O)[C@H](CC(C)C)NC(=O)[C@H](CO)NC(=O)[C@H](CCCNC(=N)N)NC(=O)[C@H](CCC(N)=O)NC(=O)[C@H](CCCNC(=N)N)NC(=O)[C@H](Cc2c[nH]cn2)NC(C)=O)[C@@H](C)O)CCCC=CCCC[C@@](C)(C(=O)N[C@H](C(=O)N[C@@H](Cc2ccc3ccccc3c2)C(N)=O)C(C)(C)C)NC(=O)[C@H](CCCNC(=N)N)NC(=O)[C@H](CCC(N)=O)NC1=O` [SEQ ID NO: 192, HRQRSLQTLRXIQRX(Tle)(2-Nal)] (Ac-HRQRSLQTLR[S5]IQR[S5][Tle][2Nal]-NH2; staple 11-15), for which the pIC50 was 5.59.

As for `CC[C@H](C)[C@@H]1NC(=O)[C@@](C)(NC(=O)[C@H](CCCNC(=N)N)NC(=O)[C@H](CC(C)C)NC(=O)[C@@H](NC(=O)[C@H](CCC(=O)O)NC(=O)[C@H](CC(C)C)NC(C)=O)[C@@H](C)O)CCCC=CCCC[C@@](C)(C(=O)N[C@@H](CC2CCC2)C(=O)N[C@@H](Cc2ccc3ccccc3c2)C(N)=O)NC(=O)[C@H](CCCNC(=N)N)NC(=O)[C@H](CCC(N)=O)NC1=O` [SEQ ID NO: 109, LETLRXIQRX(CBA)(2-Nal)] (Ac-LETLR[S5]IQR[S5][Cba][2Nal]-NH2; staple 6-10), the pIC50 was less than 5.30.

The molecule `CC[C@H](C)[C@@H]1NC(=O)[C@@](C)(NC(=O)[C@H](CCCNC(=N)N)NC(=O)[C@H](CC(C)C)NC(=O)[C@@H](NC(=O)[C@H](CCC(N)=O)NC(=O)[C@H](CC(C)C)NC(=O)[C@H](CO)NC(=O)[C@H](CCCNC(=N)N)NC(=O)[C@H](CCC(=O)O)NC(=O)[C@H](CCCNC(=N)N)NC(=O)[C@H](Cc2c[nH]cn2)NC(C)=O)[C@@H](C)O)CCCC=CCCC[C@@](C)(C(=O)N[C@@H](CC2CCC2)C(=O)N[C@@H](Cc2ccc3ccccc3c2)C(N)=O)NC(=O)[C@H](C)NC(=O)[C@H](CCC(N)=O)NC1=O` [SEQ ID NO: 29, HRERSLQTLRXIQAX(CBA)(2-Nal)] (Ac-HRERSLQTLR[S5]IQA[S5][Cba][2Nal]-NH2; staple 11-15) gave a pIC50 of 5.57.

In turn, `CC[C@H](C)[C@@H]1NC(=O)[C@@](C)(NC(=O)[C@H](CCCNC(=N)N)NC(=O)[C@H](CC(C)C)NC(=O)[C@@H](NC(=O)[C@H](CCC(N)=O)NC(=O)[C@H](CC(C)C)NC(=O)[C@H](CO)NC(=O)[C@H](CCCNC(=N)N)NC(=O)[C@H](CCC(N)=O)N(C)C(=O)[C@H](CCCNC(=N)N)NC(=O)[C@H](Cc2c[nH]cn2)NC(C)=O)[C@@H](C)O)CCCC=CCCC[C@@](C)(C(=O)N[C@H](C(=O)N[C@@H](Cc2ccc3ccccc3c2)C(N)=O)C(C)(C)C)NC(=O)[C@H](CCCNC(=N)N)NC(=O)[C@H](CCC(N)=O)NC1=O` [SEQ ID NO: 194, HR(N-MeGln)RSLQTLRXIQRX(Tle)(2-Nal)] (Ac-HR[NMeQ]RSLQTLR[S5]IQR[S5][Tle][2Nal]-NH2; staple 11-15) had a pIC50 of 5.43.

Take `CC[C@H](C)[C@@H]1NC(=O)[C@@](C)(NC(=O)[C@H](CCCNC(=N)N)NC(=O)[C@H](CC(C)C)NC(=O)[C@@H](NC(=O)[C@H](CCC(N)=O)NC(=O)[C@H](CC(C)C)NC(=O)[C@H](CO)NC(=O)[C@H](CCCNC(=N)N)NC(=O)[C@H](CC(=O)O)N(C)C(=O)[C@H](CCCNC(=N)N)NC(=O)[C@H](Cc2c[nH]cn2)NC(C)=O)[C@@H](C)O)CCCC=CCCC[C@@](C)(C(=O)N[C@@H](CC2CCC2)C(=O)N[C@@H](Cc2ccc3ccccc3c2)C(N)=O)NC(=O)[C@H](CCCNC(=N)N)NC(=O)[C@H](CCC(N)=O)NC1=O` [SEQ ID NO: 157, HR(N-methylD)RSLQTLRXIQRX(CBA)(2-Nal)] (Ac-HR[NMeD]RSLQTLR[S5]IQR[S5][Cba][2Nal]-NH2; staple 11-15): the pIC50 was 5.50.

`CC[C@H](C)[C@@H]1NC(=O)[C@@](C)(NC(=O)[C@H](CCCNC(=N)N)NC(=O)[C@H](CC(C)C)NC(=O)[C@@H](NC(=O)[C@H](CCC(N)=O)N(C)C(=O)[C@H](CC2CCCCC2)NC(=O)[C@H](CO)NC(=O)[C@H](CCCNC(=N)N)NC(=O)[C@H](CCC(N)=O)NC(=O)[C@H](CCCNC(=N)N)NC(=O)[C@H](Cc2c[nH]cn2)NC(C)=O)[C@@H](C)O)CCCC=CCCC[C@@](C)(C(=O)N[C@@H](CC2CCCCC2)C(=O)N[C@@H](Cc2ccc3ccccc3c2)C(N)=O)NC(=O)[C@H](CCCNC(=N)N)NC(=O)[C@H](CCC(N)=O)NC1=O` [SEQ ID NO: 185, HRQRS(Cha)(N-MeGln)TLRXIQRX(Cha)(2-Nal)] (Ac-HRQRS[Cha][NMeQ]TLR[S5]IQR[S5][Cha][2Nal]-NH2; staple 11-15): the pIC50 was 5.72.

As for `CC[C@H](C)[C@@H]1NC(=O)[C@@](C)(NC(=O)[C@H](CCCNC(=N)N)NC(=O)[C@H](CC(C)C)NC(=O)[C@@H](NC(=O)[C@H](CCC(N)=O)NC(=O)[C@H](CC(C)C)NC(=O)[C@H](CO)NC(=O)[C@H](CCCNC(=N)N)NC(=O)[C@H](CCC(=O)O)NC(=O)[C@H](CCCNC(=N)N)NC(=O)[C@H](Cc2c[nH]cn2)NC(C)=O)[C@@H](C)O)CCCC=CCCC[C@@](C)(C(=O)N[C@@H](CC2CCC2)C(=O)N[C@@H](Cc2ccc3ccccc3c2)C(N)=O)NC(=O)[C@H](CCC(N)=O)NC(=O)[C@H](CCC(N)=O)NC1=O` [SEQ ID NO: 145, HRERSLQTLRXIQQX(CBA)(2-Nal)] (Ac-HRERSLQTLR[S5]IQQ[S5][Cba][2Nal]-NH2; staple 11-15), the pIC50 was less than 5.30.

These data come from patent US11591365B2, “BCL9 peptides and variants thereof” (WntRx Pharmaceuticals Inc., priority 2017, dated 2023).
